Test results reported in patent US20070166729A1, “Method and reagent for sequencing” (Hitachi, Ltd., priority 2005, published 2007).

Columns and labels:
thermostable PPDK = conditions: cited from earlier work; for Specificity / Michaelis constants: thermostable PPDK; for Specificity: relative value in brackets, AMP = 100; for Michaelis constants: substrate named in brackets
[1] = system: luciferase luminescence reaction with ATP produced using PPi; experiment: Luminescence from DNA complementary strand synthesis at varying AMP concentrations (FIG. 7); assay type: biochemical; conditions: luminescence obtained by adding DNA
Excerpt: FIG. 7 is a graph showing the relationship between AMP concentrations and signal intensity variations obtained in luciferase luminescence reaction with ATP produced using PPi obtained in DNA complementary strand synthesis. The horizontal axis of the graph indicates AMP concentrations in the reaction solution;
The luminescence obtained by adding DNA (light emitted by PPi obtained in DNA complementary strand synthesis) is generated only in the presence of AMP. […] AMP concentrations giving sufficient luminescence intensity are within the range of 30 to 600 μM. As is obvious, the use of AMP within this concentration range enables sequencing with 0.1 pmol DNA sample.

thermostable luciferase = conditions: substrate named in brackets; cited from earlier work
luciferase [2] = target: T1, luciferase (Photinus pyralis, UniProt P08659); experiment: APS as substrate for luminescent reaction catalyzed by luciferase; assay type: biochemical; conditions: 5 μM APS, reaction solution 100 μl
Description: Pyrosequencing detects chemiluminescence derived from ATP produced from the reaction of PPi produced in DNA complementary strand synthesis with APS in the presence of ATP sulfurylase. […] For example, APS, though having approximately 1/1000 of reaction efficiency of ATP, reacts as a substrate with luciferase to emit light. To efficiently convert PPi produced in complementary strand synthesis to ATP, approximately 5 μM APS must usually be added to the reaction solution. When the volume of the reaction solution is set to 100 μl, 5 μM APS generates luminescence corresponding to approximately 500 fmol ATP. Thus, DNA sequencing with high precision by pyrosequencing must employ a DNA sample of a picomole level and large amounts of reagents commensurate therewith.
When sequencing is performed with 0.1 pmol DNA sample, which is 1/10 of the DNA sample amount (1 pmol) conventionally used, the amount of background light must be equal to or lower than the amount of chemiluminescence emitted by 0.01 pmol ATP. […] Under the conditions of pyrosequencing, the efficiency of the luminescence process with ATP as a substrate is reduced due to the coexistence of apyrase, an enzyme that degrades dNTP and ATP. […]

luciferase [3] = target: T1, luciferase; conditions: relative to ATP, cited from earlier work
ATP sulfurylase = ATP sulfurylase (Saccharomyces cerevisiae, UniProt P08536); conditions: read-out: Michaelis constant of reaction for forming the complexes of APS and the enzyme (Km), has been reported; cited from earlier work
Chain of ATP sulfurylase (P08536 whole entry, species assumed): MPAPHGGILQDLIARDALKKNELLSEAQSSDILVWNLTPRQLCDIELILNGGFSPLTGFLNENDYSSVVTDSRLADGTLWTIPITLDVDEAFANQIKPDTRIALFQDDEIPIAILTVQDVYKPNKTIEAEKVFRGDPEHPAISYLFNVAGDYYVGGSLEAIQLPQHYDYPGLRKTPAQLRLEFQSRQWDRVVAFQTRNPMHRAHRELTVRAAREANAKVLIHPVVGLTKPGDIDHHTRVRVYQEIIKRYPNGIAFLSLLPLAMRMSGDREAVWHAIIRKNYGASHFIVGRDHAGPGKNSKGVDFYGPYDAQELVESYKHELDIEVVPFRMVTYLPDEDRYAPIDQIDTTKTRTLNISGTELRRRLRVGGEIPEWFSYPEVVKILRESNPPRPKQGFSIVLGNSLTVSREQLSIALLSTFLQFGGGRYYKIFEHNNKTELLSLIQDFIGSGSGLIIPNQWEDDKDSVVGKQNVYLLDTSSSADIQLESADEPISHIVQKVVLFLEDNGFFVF

T1 sequence (P08659 whole entry, species assumed): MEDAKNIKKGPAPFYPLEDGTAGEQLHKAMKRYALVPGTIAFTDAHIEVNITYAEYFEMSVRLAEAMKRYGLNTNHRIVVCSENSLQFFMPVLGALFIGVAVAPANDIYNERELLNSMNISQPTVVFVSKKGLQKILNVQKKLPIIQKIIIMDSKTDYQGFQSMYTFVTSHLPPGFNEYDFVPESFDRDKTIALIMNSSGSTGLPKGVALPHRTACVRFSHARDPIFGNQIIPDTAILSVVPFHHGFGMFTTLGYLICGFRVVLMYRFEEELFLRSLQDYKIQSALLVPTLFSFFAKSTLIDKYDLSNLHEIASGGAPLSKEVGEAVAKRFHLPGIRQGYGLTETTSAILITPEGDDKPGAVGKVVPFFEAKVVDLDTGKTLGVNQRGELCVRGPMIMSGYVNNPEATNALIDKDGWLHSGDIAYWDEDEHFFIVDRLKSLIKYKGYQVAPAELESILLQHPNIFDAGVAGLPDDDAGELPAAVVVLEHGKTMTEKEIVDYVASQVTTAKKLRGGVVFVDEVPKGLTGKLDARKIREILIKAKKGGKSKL

Compound	Specificity (thermostable PPDK)	Michaelis constants (thermostable PPDK)	other results
Cc1cn([C@H]2C[C@H](O)[C@@H](COP(=O)(O)O)O2)c(=O)[nH]c1=O [TMP]	0	–	–
Nc1ncnc2c1ncn2[C@@H]1O[C@H](COP(=O)(O)OP(=O)(O)OP(=O)(O)O)[C@@H](O)[C@H]1O [ATP]	–	201 µM	–
Nc1ncnc2c1ncn2[C@@H]1O[C@H](COP(=O)(O)O)[C@@H](O)[C@H]1O [AMP]	100	501 µM	Km (thermostable PPDK; have been reported, read-out: Michaelis constants (Km) of PPDK and AMP): 5 µM; AMP concentration at luminescence peak [1]: around 100 μM
Nc1nc2c(ncn2[C@@H]2O[C@H](COP(=O)(O)O)[C@@H](O)[C@H]2O)c(=O)[nH]1 [GMP]	CMP (0), GMP (0)	–	–
O=C(O)[C@H]1CSC(c2nc3ccc(O)cc3s2)=N1 [D-luciferin]	–	–	Michaelis constants (thermostable luciferase): 1.5104 M (D-luciferin)
O=c1ccn([C@@H]2O[C@H](COP(=O)(O)O)[C@@H](O)[C@H]2O)c(=O)[nH]1 [UMP]	0	–	–
O=P(O)(O)OP(=O)(O)O [PPi, pyrophosphate]	–	381 µM	–
C=C(OP(=O)(O)O)C(=O)O [phosphoenolpyruvate]	–	281 µM	–
Nc1ncnc2c1ncn2[C@@H]1O[C@H](COP(=O)(O)OS(=O)(=O)O)[C@@H](O)[C@H]1O [APS, adenosine 5′-phosphosulfate]	–	–	luminescence corresponding to ATP (luciferase [2]): approximately 500 fmol; reaction efficiency of ATP (fraction) as luciferase substrate (luciferase [3]): approximately 1/1000; activity to ATP as substrate for luminescent reaction catalyzed by luciferase (luciferase [3]; has been reported): 0.6×10^−3; Km (ATP sulfurylase): 0.56 µM
Nc1ccn([C@@H]2O[C@H](COP(=O)(O)O)[C@@H](O)[C@H]2O)c(=O)n1 [CMP]	CMP (0), GMP (0)	–	–
